Assay results taken from US5525627A, “Esters of acyl carnitines with long-chain aliphatic alcohols and pharmaceutical compositions containing same having antimycotic activity” (Sigma-Tau Industrie Farmaceutiche Riunite S.p.A., priority 1992, dated 1996).

How the values were obtained:
[1] = system: Saccharomyces cerevisiae (ATCC 7752); assay: MIC for yeast and yeast-like strains; format: cell-based; settings: ATCC7752, 48 hours, 35° C., read-out: Minimal Inhibitory Concentration (MIC)
Procedure, shortened: (§1)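 YNB + 0.15% asparagine + 1.0% glucose, 0.165 M MOPS buffer; Sabouraud broth overnight culture (Cryptococcus 48 h); final inoculum ~5.0×10^4 CFU/ml; fungal suspension and drug solution mixed 1:1 in microtiter wells.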

[2] = system: Candida albicans (Ca 2); assay: MIC for yeast and yeast-like strains; format: cell-based; settings: 48 hours, 35° C., read-out: Minimal Inhibitory Concentration (MIC)
Procedure, shortened: as §1

[3] = system: Candida albicans (A 54); assay: MIC for yeast and yeast-like strains; format: cell-based; settings: 48 hours, 35° C., read-out: Minimal Inhibitory Concentration (MIC)
Procedure, shortened: as §1

[4] = system: Candida tropicalis (5705); assay: MIC for yeast and yeast-like strains; format: cell-based; settings: 48 hours, 35° C., read-out: Minimal Inhibitory Concentration (MIC)
Procedure, shortened: as §1

[5] = system: Candida krusei (ISS 1); assay: MIC for yeast and yeast-like strains; format: cell-based; settings: Pichia kudriavzevii; 48 hours, 35° C.; read-out: Minimal Inhibitory Concentration (MIC)
Procedure, shortened: as §1

[6] = system: Torulopsis candida (D.S.); assay: MIC for yeast and yeast-like strains; format: cell-based; settings: Suzukiozyma candida; 48 hours, 35° C.; read-out: Minimal Inhibitory Concentration (MIC)
Procedure, shortened: as §1

[7] = system: Candida albicans (562); assay: MIC for yeast and yeast-like strains; format: cell-based; settings: 48 hours, 35° C., read-out: Minimal Inhibitory Concentration (MIC)
Procedure, shortened: as §1

[8] = system: Cryptococcus neoformans (4711); assay: MIC for yeast and yeast-like strains; format: cell-based; settings: 48 hours, 35° C., read-out: Minimal Inhibitory Concentration (MIC)
Procedure, shortened: as §1

[9] = system: Aspergillus fumigatus (1/A); assay: MIC for filamentous fungi; format: cell-based; settings: read-out: Minimal Inhibitory Concentration (MIC)
Procedure, shortened: (§2)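 Fungal conidia (5.0×10^4 CFU/ml) from 72-hour Sabouraud agar growth served as inoculum, following the yeast-like fungi protocol.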

[10] = system: Fusarium sp. (ISS 1); assay: MIC for filamentous fungi; format: cell-based; settings: read-out: Minimal Inhibitory Concentration (MIC)
Procedure, shortened: as §2

[11] = system: Aspergillus niger (ATCC 16404); assay: MIC for filamentous fungi; format: cell-based; settings: ATCC16404, read-out: Minimal Inhibitory Concentration (MIC)
Procedure, shortened: as §2

[12] = system: Penicillium sp. (1302); assay: MIC for filamentous fungi; format: cell-based; settings: read-out: Minimal Inhibitory Concentration (MIC)
Procedure, shortened: as §2

[13] = system: Aspergillus fumigatus (C/1); assay: MIC for filamentous fungi; format: cell-based; settings: read-out: Minimal Inhibitory Concentration (MIC)
Procedure, shortened: as §2

[14] = system: Aspergillus fumigatus (ATCC 28212); assay: MIC for filamentous fungi; format: cell-based; settings: ATCC28212, read-out: Minimal Inhibitory Concentration (MIC)
Procedure, shortened: as §2

[15] = system: Mucor mucedo (ATCC 7941); assay: MIC for filamentous fungi; format: cell-based; settings: ATCC7941, read-out: Minimal Inhibitory Concentration (MIC)
Procedure, shortened: as §2

[16] = system: Aspergillus fumigatus (2/A); assay: MIC for filamentous fungi; format: cell-based; settings: read-out: Minimal Inhibitory Concentration (MIC)
Procedure, shortened: as §2

[17] = system: peritoneal macrophages; assay: Test 4: peritoneal macrophage number in mice; format: in vivo, mice (male B6 D2 F1); settings: 100 mg/kg/day oral, 5 consecutive days
Procedure: Test 4: Evaluation of the effect of repeated oral administrations of ST 722 on the peritoneal macrophage number in mice.
Male B6 D2 F1 mice (C. River) aged 10 weeks (6 animals each group) were orally treated with the substance ST 722 at the dose of 100 mg/kg/day for 5 consecutive days. Twenty-four hours after the last administration, the animals were sacrificed, the peritoneal exudate cells (PEC) collected and the macrophage number determined.

[18] = system: dermatophytic fungi; assay: MIC / MFC for dermatophytic fungi, all strains; format: cell-based, Trichophyton, Microsporum, Epidermophyton; settings: versus susceptible strains
Procedure: The following strains were used: Trichophyton menthagrophytes ATCC 9533, Trichophyton rubrum IHEM 4274, Microsporum canis IHEM 3522, Epydermophyton floccosum IHEM 3495. The tested substances were: ST 722, ST 1033, ST 1037, ST 1050, ST 1051, ST 1052,. ST 1053.
The assay was performed following the same procedure described for the yeasts, by using 7-day fungi cultures grown at 30° C. in Potato Dextrose agar, and harvested with Sabouraud broth and Tween 80 (0.5%).
After washing with Yeast Nitrogen Base, supplemented with asparagine and glucose (as carbon source), the fungal suspension was fragmented using a tissue grinder until the largest clumps or aggregates were undetectable within the grinder. This fungal suspension was then appropriately diluted in YNB to yield a concentration of 2.0×10^5 infective particles/ml (small mycelium fragments, micro-and macroaleuriospores).
Volumes of 100 μl both of the fungal suspensions and substance solutions, two-fold serially diluted in assay medium, were distributed into each well of a microtiter plate (96 wells, round bottom), which was incubated at 35° C. for 96 hours.

With CCCCCCCCCCCOC(=O)C[C@H](C[N+](C)(C)C)OC(=O)CC(C)C [ST 722, isovaleryl-L-carnitine undecyl ester chloride] the MIC [1] was 3.12 µg/mL, the MIC [2] was 1.56 µg/mL and the MIC [3] was 3.12 µg/mL. The MIC [4] was 3.12 µg/mL, the MIC [5] was 3.12 µg/mL and the MIC [6] was 6.25 µg/mL. The MIC [7] was 3.12 µg/mL, the MIC [8] was 1.56 µg/mL and the MIC [9] was 12.5 µg/mL. For the same molecule, the MIC [10] was 6.25 µg/mL, the MIC [11] was 12.5 µg/mL and the MIC [12] was 12.5 µg/mL. The MIC [13] was 12.5 µg/mL, the MIC [14] was 12.5 µg/mL and the MIC [15] was 50 µg/mL. The MIC [16] was 12.5 µg/mL, the “toxic effect in PEC macrophage population” value [17] was “No toxic effect has been observed” and the “PEC Mo” value ([17]; 6 pooled samples) was 63%. The Body weight ([17]; ± S.E., 6 animals) was 28.13 ± 1.30 g, the “increase in the peritoneal macrophages number” value ([17]; versus control) was “about 60%” and the MIC [18] was 28.1 µg/mL.
